Patent US9085550B2, “Ligands for estrogen related receptors and methods for synthesis of said ligands” (CITY OF HOPE, priority 2005, dated 2015)

Columns and labels:
human ERβ = biological target: T1, human ERβ (Homo sapiens, UniProt Q92731); assay: ERE-TK-luc reporter transactivation assay in CV-1 cells, full-length hERb; type: cell-based
T1 construct: Human ERα and ERβ were examined as full-length proteins using an estrogen receptor responsive reporter construct; expressed in transfected cells; host or cells: CV-1
Procedure: (§1) Human ERα and ERβ were examined as full-length proteins using an estrogen receptor responsive reporter construct.
(§2) Suitable reporter gene constructs are well known to skilled workers in the fields of biochemistry and molecular biology. […] Other vectors known in the art can be used in the methods of the present invention.
(§3) CV-1 cells for the activation assays were grown in Dulbecco's modified Eagle's medium supplemented with 10% resin charcoal-stripped fetal bovine serum, 50 U/ml penicillin G and 50 μg/ml streptomycin sulfate (DMEM-FBS) at 37° C. in 5% CO2. One day prior to transfection, cells were plated to 50-80% confluence using phenol red free DMEM-FBS.

human ERα = biological target: T2, human ERα (Homo sapiens, UniProt P03372); assay: ERE-TK-luc reporter transactivation assay in CV-1 cells, full-length hERa; type: cell-based
T2 construct: Human ERα and ERβ were examined as full-length proteins using an estrogen receptor responsive reporter construct; expressed in transfected cells; host or cells: CV-1
T2 sequence (P03372 1-595): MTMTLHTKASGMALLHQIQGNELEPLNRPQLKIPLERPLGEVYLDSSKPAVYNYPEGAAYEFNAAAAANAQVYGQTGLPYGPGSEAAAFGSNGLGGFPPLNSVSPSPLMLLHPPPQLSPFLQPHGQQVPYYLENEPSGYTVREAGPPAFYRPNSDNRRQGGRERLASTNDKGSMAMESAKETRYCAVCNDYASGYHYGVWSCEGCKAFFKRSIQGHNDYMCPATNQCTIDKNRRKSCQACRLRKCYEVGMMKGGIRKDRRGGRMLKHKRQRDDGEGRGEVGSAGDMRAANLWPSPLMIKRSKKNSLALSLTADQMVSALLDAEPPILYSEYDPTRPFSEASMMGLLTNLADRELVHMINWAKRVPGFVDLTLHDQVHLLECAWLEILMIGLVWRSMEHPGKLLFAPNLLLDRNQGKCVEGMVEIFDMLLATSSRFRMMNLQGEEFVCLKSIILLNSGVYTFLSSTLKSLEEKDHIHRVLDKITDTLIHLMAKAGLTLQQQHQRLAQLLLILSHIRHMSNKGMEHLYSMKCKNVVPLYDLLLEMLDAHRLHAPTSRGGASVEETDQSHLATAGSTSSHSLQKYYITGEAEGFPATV
Procedure: as §1, §2, §3

[1] = biological target: T3, GAL-L-hERRb (human ERRβ ligand binding domain fused to GAL4 DNA binding domain) (Homo sapiens, UniProt O95718); assay: GAL4 reporter transactivation assay in CV-1 cells, GAL-L-hERRb; type: cell-based; conditions: for Fold activation, GAL-L-hERRb + PGC-1a / Fold activation, GAL-L-hERRb: CV-1; for Fold activation, GAL-L-hERRb + PGC-1a: reporter 0.42:vector 0.00875:PGC-1a 0.035; for Fold activation, GAL-L-hERRb: reporter 0.42:vector 0.00875, no PGC-1a
T3 construct: expressed in transfected cells; host or cells: CV-1
T3 sequence (O95718 208-432 limits assumed): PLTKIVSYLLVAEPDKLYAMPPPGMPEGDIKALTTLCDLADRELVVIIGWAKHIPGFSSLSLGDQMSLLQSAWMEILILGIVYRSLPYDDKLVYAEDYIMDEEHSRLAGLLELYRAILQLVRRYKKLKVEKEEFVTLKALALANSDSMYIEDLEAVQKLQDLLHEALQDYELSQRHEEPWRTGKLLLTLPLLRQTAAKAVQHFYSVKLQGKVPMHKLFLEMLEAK

[2] = biological target: T4, HRHN-GAL (yeast GAL4 DNA binding domain without receptor sequences) (Saccharomyces cerevisiae, UniProt P04386); assay: GAL4 reporter transactivation assay in CV-1 cells, control vector without receptor; type: cell-based, monkey; conditions: for Fold activation, HRHN-GAL: reporter 0.42:vector 0.00875, no PGC-1a
T4 construct: expressed in transfected cells; host or cells: CV-1

[3] = biological target: T5, GAL-mERRg (mouse ERRγ ligand binding domain fused to GAL4 DNA binding domain) (Mus musculus, UniProt P62509); assay: GAL4 reporter transactivation assay in CV-1 cells, GAL-mERRg; type: cell-based; conditions: for Fold activation, GAL-mERRg + PGC-1a / Fold activation, GAL-mERRg: CV-1; for Fold activation, GAL-mERRg + PGC-1a: reporter 0.42:vector 0.00875:PGC-1a 0.035; for Fold activation, GAL-mERRg: reporter 0.42:vector 0.00875, no PGC-1a
T5 construct: expressed in transfected cells; host or cells: CV-1
T5 sequence (P62509 233-457 limits assumed): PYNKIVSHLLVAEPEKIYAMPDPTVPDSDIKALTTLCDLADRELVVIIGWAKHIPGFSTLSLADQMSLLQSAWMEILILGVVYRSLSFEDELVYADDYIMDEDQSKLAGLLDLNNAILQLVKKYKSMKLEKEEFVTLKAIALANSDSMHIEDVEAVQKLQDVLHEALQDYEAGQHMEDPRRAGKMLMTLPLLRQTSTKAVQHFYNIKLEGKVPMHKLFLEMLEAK

[4] = biological target: T6, GAL-hERRa (human ERRα ligand binding domain fused to GAL4 DNA binding domain) (Homo sapiens, UniProt P11474); assay: GAL4 reporter transactivation assay in CV-1 cells, GAL-hERRa; type: cell-based; conditions: for Fold activation, GAL-hERRa + PGC-1a / Fold activation, GAL-hERRa: CV-1; for Fold activation, GAL-hERRa + PGC-1a: reporter 0.42:vector 0.00875:PGC-1a 0.035; for Fold activation, GAL-hERRa: reporter 0.42:vector 0.00875, no PGC-1a
T6 construct: expressed in transfected cells; host or cells: CV-1
T6 sequence (P11474 193-421 limits assumed): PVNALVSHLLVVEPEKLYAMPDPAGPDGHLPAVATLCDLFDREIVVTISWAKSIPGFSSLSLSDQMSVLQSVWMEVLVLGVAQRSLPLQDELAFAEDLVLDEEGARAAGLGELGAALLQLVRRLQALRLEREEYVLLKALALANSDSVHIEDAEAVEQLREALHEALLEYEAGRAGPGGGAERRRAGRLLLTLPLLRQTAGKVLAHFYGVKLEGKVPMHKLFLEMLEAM

T4 sequence (P04386 1-147): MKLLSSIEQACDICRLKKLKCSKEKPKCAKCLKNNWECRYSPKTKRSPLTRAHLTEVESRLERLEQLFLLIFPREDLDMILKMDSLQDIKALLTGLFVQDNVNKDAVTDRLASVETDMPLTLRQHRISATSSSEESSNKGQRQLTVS
T1 sequence (Q92731 whole entry): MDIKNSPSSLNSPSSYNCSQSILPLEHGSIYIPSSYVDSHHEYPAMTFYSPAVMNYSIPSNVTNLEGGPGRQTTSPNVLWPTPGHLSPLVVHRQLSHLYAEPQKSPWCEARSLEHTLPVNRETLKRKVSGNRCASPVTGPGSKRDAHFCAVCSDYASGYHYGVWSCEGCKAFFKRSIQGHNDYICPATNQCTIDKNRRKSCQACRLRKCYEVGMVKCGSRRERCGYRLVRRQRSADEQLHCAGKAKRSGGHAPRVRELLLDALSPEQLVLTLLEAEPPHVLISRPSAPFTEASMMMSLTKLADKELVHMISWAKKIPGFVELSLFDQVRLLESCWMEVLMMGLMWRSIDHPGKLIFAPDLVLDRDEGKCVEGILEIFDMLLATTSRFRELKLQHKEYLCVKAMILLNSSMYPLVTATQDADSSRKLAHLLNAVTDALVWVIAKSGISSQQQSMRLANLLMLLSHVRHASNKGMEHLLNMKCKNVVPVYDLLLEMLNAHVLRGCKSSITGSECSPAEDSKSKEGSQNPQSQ

Cc1cccc(C=NNC(=O)c2ccc(O)cc2)c1 [DY159, 4-Hydroxy-benzoic acid (3-methyl-benzylidene)-hydrazide]
Fold Activation, ERE-TK-luc, hERb (human ERβ; Table 7, CV-1, drug conc 30 μM): 1.93 fold
Activation of ERb (human ERβ; specificity for ERRs): do not activate
Fold Activation, ERE-TK-luc, hERa (human ERα; Table 7, CV-1, drug conc 30 μM): 1.59 fold
Activation of ERa (human ERα; specificity for ERRs): do not activate
Fold activation, GAL-L-hERRb + PGC-1a ([1]; 1 μM): 1.38 fold
Fold activation, GAL-L-hERRb + PGC-1a ([1]; 3 μM (first 3 μM column)): 1.79 fold
Fold activation, GAL-L-hERRb + PGC-1a ([1]; 3 μM (second 3 μM column)): 1.47 fold
Fold activation, GAL-L-hERRb + PGC-1a ([1]; 10 μM): 1.89 fold
Fold activation, GAL-L-hERRb + PGC-1a ([1]; 30 μM): 2.45 fold
Fold activation, GAL-L-hERRb ([1]; 1 μM): 1.29 fold
Fold activation, GAL-L-hERRb ([1]; 3 μM (first 3 μM column)): 1.25 fold
Fold activation, GAL-L-hERRb ([1]; 3 μM (second 3 μM column)): 0.98 fold
Fold activation, GAL-L-hERRb ([1]; 10 μM): 1.33 fold
Fold activation, GAL-L-hERRb ([1]; 30 μM): 1.36 fold
Activation of ERRβ ([1]; in the presence of PGC-1a): can activate
Fold activation, HRHN-GAL ([2]; 1 μM): 0.95 fold
Fold activation, HRHN-GAL ([2]; 3 μM (first 3 μM column)): 1.08 fold
Fold activation, HRHN-GAL ([2]; 3 μM (second 3 μM column)): 1.25 fold
Fold activation, HRHN-GAL ([2]; 10 μM): 1.24 fold
Fold activation, HRHN-GAL ([2]; 30 μM): 1.26 fold
Fold activation, HRHN-GAL + PGC-1a ([2]; reporter 0.42:vector 0.00875:PGC-1a 0.035, 1 μM): 1.31 fold
Fold activation, HRHN-GAL + PGC-1a ([2]; reporter 0.42:vector 0.00875:PGC-1a 0.035, 3 μM (first 3 μM column)): 1.05 fold
Fold activation, HRHN-GAL + PGC-1a ([2]; reporter 0.42:vector 0.00875:PGC-1a 0.035, 3 μM (second 3 μM column)): 1.03 fold
Fold activation, HRHN-GAL + PGC-1a ([2]; reporter 0.42:vector 0.00875:PGC-1a 0.035, 10 μM): 1.39 fold
Fold activation, HRHN-GAL + PGC-1a ([2]; reporter 0.42:vector 0.00875:PGC-1a 0.035, 30 μM): 1.11 fold
Fold activation, GAL-mERRg + PGC-1a ([3]; 1 μM): 1.16 fold
Fold activation, GAL-mERRg + PGC-1a ([3]; 3 μM (first 3 μM column)): 1.45 fold
Fold activation, GAL-mERRg + PGC-1a ([3]; 3 μM (second 3 μM column)): 1.80 fold
Fold activation, GAL-mERRg + PGC-1a ([3]; 10 μM): 2.70 fold
Fold activation, GAL-mERRg + PGC-1a ([3]; 30 μM): 2.56 fold
Fold activation, GAL-mERRg ([3]; 1 μM): 1.39 fold
Fold activation, GAL-mERRg ([3]; 3 μM (first 3 μM column)): 1.28 fold
Fold activation, GAL-mERRg ([3]; 3 μM (second 3 μM column)): 1.22 fold
Fold activation, GAL-mERRg ([3]; 10 μM): 1.36 fold
Fold activation, GAL-mERRg ([3]; 30 μM): 1.01 fold
Activation of ERRγ ([3]; in the presence of PGC-1a): can activate
Fold activation, GAL-hERRa + PGC-1a ([4]; 1 μM): 1.18 fold
Fold activation, GAL-hERRa + PGC-1a ([4]; 3 μM (first 3 μM column)): 1.69 fold
Fold activation, GAL-hERRa + PGC-1a ([4]; 3 μM (second 3 μM column)): 1.55 fold
Fold activation, GAL-hERRa + PGC-1a ([4]; 10 μM): 2.02 fold
Fold activation, GAL-hERRa + PGC-1a ([4]; 30 μM): 2.61 fold
Fold activation, GAL-hERRa ([4]; 1 μM): 1.03 fold
Fold activation, GAL-hERRa ([4]; 3 μM (first 3 μM column)): 1.41 fold
Fold activation, GAL-hERRa ([4]; 3 μM (second 3 μM column)): 1.23 fold
Fold activation, GAL-hERRa ([4]; 10 μM): 1.64 fold
Fold activation, GAL-hERRa ([4]; 30 μM): 2.41 fold
Activation of ERRα ([4]; in the presence of PGC-1a): can activate
